Experiments:
[1] = system: MCP-1; experiment: MCP-1 ELISA in retinoic acid-treated normal human skin keratinocytes; format: cell-based; conditions: NHEKs, 24 hours
Protocol: One day before the testing, normal human skin keratinocytes (NHEKs, Lonza) were added to a 96-well plate with 5×10^4 cells/well and cultured in a 5% CO2 incubator at 37° C. for 24 hours. 24 hours later, the cells were washed with PBS twice and the cell culture medium was replaced with a serum-free keratinocyte basement medium (KBM). […] The retinoic acid is known to promote the secretion of the inflammatory cytokine MCP (monocyte chemoattractant protein-1) as a skin irritant. […] For the ELISA, the method provided by BD Science was used.

[2] = system: Mel-Ab cells; experiment: Melanin production inhibition in Mel-Ab cells (Dooley's method); format: cell-based, mouse; conditions: 10 ppm, added for 3 consecutive days
Protocol: Melanocytes derived from C57BL/6 mouse (Mel-Ab cells) (Dooley, T. P. et al, Skin Pharmacol, 7, pp. 188-200) were cultured in DMEM supplemented with 10% fetal bovine serum, 100 nM 12-O-tetradecanoylphorbol-13-acetate and 1 nM cholera toxin under the condition of 37° C. and 5% CO2. The cultured Mel-Ab cells were detached with 0.25% trypsin-EDTA and cultured in a 24-well plate with a concentration of 10^5 cells/well. During the culturing, each test substance was added for 3 consecutive days starting from day 2. […] After removing the medium, the cells were washed with phosphate-buffered saline (PBS) and lysed with 1 N sodium hydroxide. After measuring absorbance at 400 nm, the melanin production inhibition was calculated according to Equation 2.
Melanin production inhibition(%)=100−(Absorbance of group treated with test substance/Absorbance of control group×100) [Equation 2]

[3] = system: collagenase; experiment: Collagenase expression suppression in human fibroblasts; format: cell-based; conditions: 10^−4 M, 24 hours, untreated group = 100
Protocol: Tocopherol and EGCG are known to prevent skin aging by regenerating epidermal cells.
Human fibroblasts were added to a 96-well microtiter plate containing Dulbecco's modified Eagle's medium (DMEM) supplemented with 2.5 wt % fetal bovine serum, with 5,000 cells/well, and cultured to about 90% confluence.
The production of collagenase in the cell culture was measured using a collagenase measuring system (Amersham Pharmacia, USA). First, the harvested cell culture was added to a 96-well plate having primary collagenase antibodies applied uniformly thereto and was incubated for 3 hours in a constant-temperature bath. 3 hours later, after adding chromophore-conjugated secondary collagen antibodies to the 96-well plate, incubation was performed for 15 minutes. 15 minutes later, a substance inducing color development was added and color development was induced at room temperature for 15 minutes. […] The intensity of the yellow color varied depending on the degree of progress of the reaction.
A cell culture obtained without treating with the composition was used as a control group. That is to say, the expression level of collagenase in the group treated with the test substance was calculated relative to that of the untreated group as 100.
Collagenase expression level(%)=Absorbance of group treated with test substance/Absorbance of control group×100 [Equation 1]

[4] = Skin irritation test by sensitive panels; format: in vivo, human; conditions: scale 0-3.0
Excerpt: 0.5-1.0: Slight irritation.
1.1-2.0: Moderate irritation.
2.1-3.0: Severe irritation.

[5] = DPPH method, antioxidative effect; format: biochemical; conditions: sample concentration at which DPPH absorbance (540 nm) decreased by 50%; 37° C., 30 minutes
Protocol: The DPPH method evaluates antioxidative effect by measuring and comparing the effect of suppressing DPPH oxidation based on the change in absorbance caused by the reduction of DPPH. […] After incubation at 37° C. for 30 minutes, absorbance was measured at 540 nm. The analysis result is shown in Table 3, where IC50 means the sample concentration when the absorbance was decreased by 50% due to the added sample.

[6] = 0.5 mL on cheek, 15 sensitive panels

C[C@]12CCC(=O)C=C1CC[C@@H]1[C@@H]2[C@@H](O)C[C@@]2(C)[C@H]1CC[C@]2(O)C(=O)CO [Hydrocortisone, hydrocortisone]
MCP-1 secretion ([1]; 100 nM + retinoic acid 10 μM): 448.3 pg/mL

Oc1ccc(O)cc1 [Hydroquinone, hydroquinone]
Melanin production inhibition [2]: 57.5%

tocopherol
Collagenase expression level [3]: 81%

O=C(O[C@@H]1Cc2c(O)cc(O)cc2O[C@@H]1c1cc(O)c(O)c(O)c1)c1cc(O)c(O)c(O)c1 [EGCG]
Collagenase expression level [3]: 59%

CC1=C(/C=C/C(C)=C/C=C/C(C)=C/C(=O)O)C(C)(C)CCC1 [Retinoic acid, retinoic acid]
MCP-1 secretion ([1]; retinoic acid 10 μM alone, untreated group 527.3): 804.5 pg/mL

O=c1cc(CO)occ1O [Kojic acid, kojic acid]
Flushing score [4, 6]: 0.43 points | Pricking score [4, 6]: 0.81 points | Mean irritation score ([4]; mean of pricking and flushing): 0.62 points

Cc1c(C)c2c(c(C)c1O)CCC(C)(C(=O)O)O2 (stereo not drawn) [Trolox]
IC50 [5]: 57 ppm
